Columns and labels:
[1] = test system: harmful insects such as mosquitoes and midges; experiment: Experiment Example 2: device suspended in a doghouse, insecticidal effects; type: in vivo; settings: 70 mg Compound A retained, 1400 rpm, 8 hours per day for about 30 days
Description: Two-dimensional mesh-like chemical-retaining fibers 2 were woven using twisted polyester fibers, and supportive connecting chemical-retaining fibers 3 (upper and lower widths: 2.5 mm), comprised of nylon fibers, were arranged in a state in which a columnar structure and a diagonal structure were overlapped based on the constitution of the aforementioned (8) shown in FIG. 8 to produce a disc-like chemical retainer 1 having an overall thickness in the vertical direction of 4.2 mm and an outer diameter of 4.5 cm.
70 mg of Compound A (2,3,5,6-tetrafluorobenzyl-2,2-dimethyl-3-(2,2-dichlorovinyl)cyclopropane carboxylate) was retained instead of the chemical used in Experiment Example 1 and activated for 240 hours.
This chemical retainer 1 was housed in the protective case 4 of Experiment Example 1, activated for 8 hours per day by suspending in a doghouse at a rotating speed of 1400 rpm, and said activation was continued for about 30 days.

mosquitoes = experiment: Experiment Example 1: chemical volatilization device activated, mosquito control; type: in vivo; settings: 40 mg Compound C dissolved in kerosene retained in chemical retainer, 1200 rpm, over about 120 hours
Description: Two-dimensional mesh-like chemical-retaining fibers 2 were woven on both the upper and lower sides using twisted polyester fibers, and supportive connecting chemical-retaining fibers 3 (upper and lower widths: 3 mm), comprised of polyester fibers, were arranged between both sides based on a diagonal structure according to the constitution of the aforementioned (6) as shown in FIG. 6 to produce a disc-like chemical retainer 1 having an overall thickness in the vertical direction of 4.0 mm and an outer diameter of 4.0 cm.
The chemical retainer 1 was housed in a protective case 4 made of polycarbonate (outer diameter: 5.0 cm, thickness: 8 mm), and the protective case 4 employed a roughly circular cross-section for circumferential retaining frames 41.
In this type of chemical retainer 1, a chemical solution, in which 40 mg of Compound C (4-methoxymethyl-2,3,5,6-tetrafluorobenzyl-2,2-dimethyl-3-(1-propenyl)cyclopropane carboxylate) were dissolved in kerosene, was retained in said chemical retainer 1, and after housing in the protective case 4, was activated for 120 hours at a rotating speed of 1200 rpm.

| SMILES | insecticidal effects against harmful insects during continuous activation [1] | control of mosquitoes during activation (mosquitoes) |
| --- | --- | --- |
| CC1(C)C(C=C(Cl)Cl)C1C(=O)OCc1c(F)c(F)cc(F)c1F (centres unmarked) [Compound A, 2,3,5,6-tetrafluorobenzyl-2,2-dimethyl-3-(2,2-dichlorovinyl) cyclopropane carboxylate] | stable insecticidal effects | – |
| CC=CC1C(C(=O)OCc2c(F)c(F)c(COC)c(F)c2F)C1(C)C (centres unmarked) [Compound C, 4-methoxymethyl-2,3,5,6-tetrafluorobenzyl-2,2-dimethyl-3-(1-propenyl)cyclopropane carboxylate] | – | effectively controlled |
